Assay results taken from US20230322815A1, “NOVEL COMPOUNDS AND THERAPEUTIC USES THEREOF” (University of Huddersfield, priority 2020, published 2023).

Assays:
[1] = system: HCT116 p53^−/−; test: Chemosensitivity (MTT, 96 h continuous exposure); assay type: cell-based, human
Description: FIG. 7. Chemosensitivity response of a panel of human cancer and non-cancer cell lines to 96 h continuous exposure to self-assembling test compounds. a, The potency of compounds tested against cancer (HT-29, DLD-1, HCT116 p53^+/+ and […], PSN1, MiaPaCa2, BxPC3, A549, H460 and GBM1) and non-cancer cells (ARPE-19, MCF10A and NP1). Each value represents the mean IC50±standard deviation from a minimum of three independent experiments. b,c, The selectivity index (SI) for [L2Cu3]^6+ (b) and [L2Zn3]^6+ (c) for the indicated cancer cell lines; SI is defined as the mean IC50 against the particular non-cancer cell line model divided by the mean IC50 against the particular cancer cell line. […] As the SI value is calculated using the mean IC50 values, experimental error is not included in these figures. d,e, IC50 values for the clinically approved platinates (cisplatin, oxaliplatin and carboplatin) and [L2Mn3]^6+ and the corresponding SI results.
All cell lines used were maintained at low passage in antibiotic-free media and were obtained from ATCC (LGC Standards, Middlesex, UK) unless otherwise stated (Methods). HT29, DLD-1, HCT116 p53^+/+ and HCT116 p53^−/− are all colorectal adenocarcinoma cell lines derived from different individuals and harbor different combinations of oncogenic lesions (except for the HCT116 isogenic cancer cell clones that are genetically identical except for p53 status). PSN-1, BxPC-3 and MiaPaCa2 are pancreatic carcinoma cell lines and A549 and H460 are lung carcinoma cell lines. HT29, DLD-1, PSN-1, BxPC-3, A549 and H460 cell lines were cultured in RPMI-1640 growth media (Sigma) containing 2 mM L-glutamine, 1 mM sodium pyruvate and 10% fetal bovine serum (FBS). HCT116 (p53^+/+ and p53^−/−) and MiaPaCa2 cell lines were cultured in Dulbecco's Modified Eagle's Medium (Sigma), 2 mM L-glutamine and 10% FBS. The ARPE-19 retinal epithelial non-cancer cell line (Dunn et al., 1996) was cultured in DMEM/F12 media (Gibco), 2 mM L-glutamine, 1 mM sodium pyruvate and 10% FBS. The MCF10A non-cancerous human breast epithelial cell line was cultured in Minimal Essential Media Eagle (Sigma), 2 mM L-glutamine, 1 mM sodium pyruvate, 10% FBS and 1×non-essential amino acids (NEAA). NP1 and GBM1 cells were cultured on plasticware coated with poly-L-ornithine (5 μg/ml) and laminin (2.4 μg/ml) (Polson et al., 2018; Da Silva et al., 2019). […]
[L2M3]^6+ and all the other self-assembling complexes were freshly formed by adding DMSO to individual components mixing together by pipetting. […] Media and MTT were removed and formazan crystals were dissolved in 150 μl of DMSO and the absorbance of the resulting solution determined at 540 nm. […]

[2] = Dephosphorylation of phosphorylated amino acid (31P NMR); settings: 37° C.
Description: (§1) FIG. 6. Phosphatase activity of [L2Zn3]^6+. ^31P NMR spectra using different substrates including PhOPO3 (spectra A to D), serine phosphate (spectra E to H), threonine phosphate (spectra I to L) and tyrosine phosphate (spectra M to P). Specific details for each ^31P NMR spectra are as follows: Spectra A, E, I and M represent substrate alone (44 hrs incubated @ 37° C.); Spectra B, F, J and N represents [L2Zn3]^6+ plus substrate (t=0 min); Spectra C, G, K and O represents [L2Zn3]^6+ plus substrate incubated @ 37° C. for 19 hours; Spectra D, H, L and […] represents [L2Zn3]^6+ plus substrate incubated @ 37° C. for 44 hours. The ^31P NMR of [L2Zn3(PO4)]^3+ gives a signal at 8.6 ppm.
(§2) Given the importance of protein phosphorylation in inter- and intra-cellular signalling and to cell function, and its common dysregulation in cancers,^30, 31 it was next analysed whether the Zn^2+ complex could dephosphorylate the phosphorylated amino acids serine, threonine and tyrosine. […] Dephosphorylation of the amino acid threonine-OPO3^2− by the Zn^2+ complex was much slower however and after 48 hrs threonine-OPO3^2− was still the major species (FIG. 6, spectra I-L). Differences in reactivity towards different substrates can be attributed to both steric and electronic effects. […]

[3] = as above; settings: 37° C.; remark: listed apart in the source
Description: as §1, §2

## [Zn+2].[Zn+2].[Zn+2].c1ccc(-c2csc(NCCN(CCNc3nc(-c4ccccn4)cs3)CCNc3nc(-c4ccccn4)cs3)n2)nc1.c1ccc(-c2csc(NCCN(CCNc3nc(-c4ccccn4)cs3)CCNc3nc(-c4ccccn4)cs3)n2)nc1 [[L2Zn3]^6+]
[1]; HCT116 p53^−/− compared to ARPE-19
  selectivity index (IC50 non-cancer cells / IC50 cancer cells): over 2000
[1]; HCT116 p53^−/− compared to MCF10A
  selectivity index (IC50 non-cancer cells / IC50 cancer cells): over 2000
[1]; HCT116 p53^−/−, 96 h, MTT
  IC50: 0.07 ± 0.013 µM
[1]; based on 96 h IC50 values
  fold more active towards HCT116 p53^−/− than HCT116 p53^+/+: ~6 fold
[2]
  time to completion of dephosphorylation: 48 h
[2]; after 48 hrs threonine-OPO3^2− still the major species
  rate of dephosphorylation: much slower
[3]
  time to completion of dephosphorylation: 48 h
